According to US8173668B1 (Alcon Research, Ltd., priority 2007, dated 2012):

Key:
[1] = test system: h-CM cells; assay: MMP activity in h-CM cells after 24 hour exposure; format: cell-based, human; settings: 1 μM
Description: As with FP-class prostanoids, the IOP-lowering effects of BK may involve the stimulation of production of various MMPs that in turn digest the extracellular matrix (ECM) to promote outflow and thus lower IOP (Mietz et al., Invest. Ophthalmol. Vis. Sci. 44: 5182-5188, 2003; Webb et al., J. Ocular Pharmacol. Ther. 22: 310-316, 2006). Cells isolated from human or animal ocular or non-ocular tissues, or cells expressing recombinant (preferably human) BK receptors are seeded in 48-wells culture plates and allowed to reach confluence. […] BK (100 nM) can be used a positive control compound. After this time the supernatant from each well is concentrated 20-fold (Centricon Concentrators; Millipore Corp., Bedford, Mass.). Equivalent volumes of media are then loaded onto 12% sodium dodicyl sulfate polyacrylamide gels, where the secreted proteins are separated according to their molecular weights by standard SDS-polyacrylamide gel electrophoresis protocols and transferred onto nitrocellulose paper. The level of MMP-1, MMP-2, MMP-3 and MMP-9 is then determined by immunoblot analysis with rabbit polyclonal anti-MMP antibodies. Bands are visualized by the addition of anti-rabbit horseradish peroxidase-conjugated secondary antibodies (New England Biolabs, Inc.; Beverly, Mass.) and enhanced chemiluminescent reagents (Pierce Biotechnology, Inc., Rockford, Ill.) (Mietz et al., Invest. Ophthalmol. Vis. Sci. 44: 5182-5188, 2003; Webb et al., J. Ocular Pharmacol. Ther. 22: 310-316, 2006). BK agonists should stimulate the production of some or all of MMP-1, MMP-2, MMP-3 and MMP-9. […] However, BK agonists with lower potencies than the above limits, whether partial or full agonists, can still be considered useful ocular hypotensive agents and may be useful as such.
Enhancement of such MMP synthesis and release by h-CM in response to FR-190997 may explain the efficacious IOP-lowering observed with this BK agonist in the glaucomatous monkey eyes (see below).

[2] = test system: conscious ocular hypertensive cynomolgus monkey eyes; assay: IOP response in lasered (hypertensive) eyes of conscious cynomolgus monkeys, topical ocular; format: in vivo
Description: Intraocular pressure (IOP) is determined with an Alcon Pneumatonometer (Alcon Laboratories, Inc., Fort Worth, Tex.) after light corneal anesthesia with 0.1% proparacaine. Right eyes are hypertensive as a result of laser trabeculoplasty. After a baseline IOP measurement, test compound is instilled in the right eyes only of 8-10 cynomolgus monkeys. Vehicle is instilled in the right eyes of 5-6 additional animals. Subsequent IOP measurements are taken at 1, 3, and 6 hours. IOP measurements are also taken on left eyes (normotensive and untreated) at each of these time points. The percent change in IOP from baseline is determined for each animal for every IOP measurement (Sharif et al. J. Ocular Pharmacol. Ther. 17: 305-317, 2001; May et al., J Pharmacol Exp Ther. 306: 301-309, 2003; Sharif et al. Invest. Ophthalmol. Vis. Res. 47: 4001-4010, 2006). Group mean and standard error of the mean (SEM) are calculated for each time point. […] In cases where the compound of invention has poor ocular bioavailability, the compound may need to be administered intracamerally or intravitreally in order to observe the IOP-lowering efficacy.
The IOP-lowering effect was slow to develop but significant IOP reduction was observed even 3 hours post-dosing with maximum ocular hypotension observed 16-48 hours post-dosing (Tables 6-8; FIGS. 3b-5).

Compound: CNC(=O)c1ccc(/C=C/C(=O)NCC(=O)N(C)c2ccc(Cl)c(COc3cccc4c(OCc5ccccn5)cc(C)nc34)c2Cl)cc1 [FR-190997]
- MMP-1 activity [1]: 59 % above basal levels
- MMP-2 activity [1]: not MMP-2 activity
- MMP-3 activity [1]: 96 % above basal levels
- % Change in IOP ([2]; Study 1, 30 μg topical ocular, Dose 1/1 hr): −4.6 ± 4.4%
- % Change in IOP ([2]; Study 1, 30 μg topical ocular, Dose 1/3 hr): −16.4 ± 5.3%
- % Change in IOP ([2]; Study 1, 30 μg topical ocular, Dose 1/6 hr): −34.5 ± 7.5%
- % Change in IOP ([2]; Study 1, 30 μg topical ocular, Dose 2/16 hr): −51.6 ± 5.4%
- % Change in IOP ([2]; Study 1, 30 μg topical ocular, Dose 2/40 hr): −35.5 ± 6.3%
- % Change in IOP ([2]; Study 1, 30 μg topical ocular, Dose 2/132 hr): −3.5 ± 3.7%
- % Change in IOP ([2]; Study 2, 3 μg topical ocular, Dose 1/24 hr): −25.9 ± 0.6%
- % Change in IOP ([2]; Study 2, 3 μg topical ocular, Dose 1/48 hr): −19.7 ± 1.9%
- % Change in IOP ([2]; Study 2, 3 μg topical ocular, Dose 1/120 hr): −7.7 ± 0.8%
- % Change in IOP ([2]; Study 3, 10 μg topical ocular, Dose 1/24 hr): −27.2 ± 0.1%
- % Change in IOP ([2]; Study 3, 10 μg topical ocular, Dose 1/48 hr): −32.5 ± 2.4%
- % Change in IOP ([2]; Study 3, 10 μg topical ocular, Dose 1/120 hr): −9.7 ± 0.6%
- % Change in IOP ([2]; Table 8 Study 1, 300 μg topical ocular, Dose 1/1 hr): 2.0 ± 0.6%
- % Change in IOP ([2]; Table 8 Study 1, 300 μg topical ocular, Dose 1/3 hr): −6.9 ± 2.9%
- % Change in IOP ([2]; Table 8 Study 1, 300 μg topical ocular, Dose 1/6 hr): −24.8 ± 10.3%
- % Change in IOP ([2]; Table 8 Study 2, 300 μg topical ocular, Dose 1/1 hr): 6.7 ± 2.1%
- % Change in IOP ([2]; Table 8 Study 2, 300 μg topical ocular, Dose 1/3 hr): −7.5 ± 3.1%
- % Change in IOP ([2]; Table 8 Study 2, 300 μg topical ocular, Dose 1/6 hr): −15.4 ± 5.7%
- % Change in IOP ([2]; Table 8 Study 3, 600 μg topical ocular, Dose 1/1 hr): −0.4 ± 0.2%
- % Change in IOP ([2]; Table 8 Study 3, 600 μg topical ocular, Dose 1/3 hr): −10.6 ± 4.4%
- % Change in IOP ([2]; Table 8 Study 3, 600 μg topical ocular, Dose 1/6 hr): −27.7 ± 11.3%
- % Change in IOP ([2]; Table 8 Study 4, 600 μg topical ocular, Dose 1/1 hr): 4.9 ± 1.6%
- % Change in IOP ([2]; Table 8 Study 4, 600 μg topical ocular, Dose 1/3 hr): −4.6 ± 2.0%
- % Change in IOP ([2]; Table 8 Study 4, 600 μg topical ocular, Dose 1/6 hr): −18.4 ± 6.9%
- % Change in IOP ([2]; Table 8 Study 4, 600 μg topical ocular, Dose 2/16 hr): −37.9 ± 14.1%
- % Change in IOP ([2]; Table 8 Study 4, 600 μg topical ocular, Dose 2/40 hr): −31.2 ± 11.7%
- % Change in IOP ([2]; Table 8 Study 4, 600 μg topical ocular, Dose 2/64 hr): −16.1 ± 6.1%
- lowering of IOP ([2]; topical ocular, 0.03-600 μg/eye): significant dose-dependent lowering of IOP
